Measurements reported in patent US6417167B1, “Lyophilized compositions containing shingoglycolipid and process for preparing them” (Kirin Beer Kabushiki Kaisha, priority 1997, dated 2002).

Tests used:
Format in all cases: physicochemical
[1] = Excipient appropriate to lyophilization 2: re-solubility after storage; details: lyophilized, Polysorbate 20 0.5%, 25° C.
Method: The lyophilized preparations having mannitol and sucrose added thereto were observed on their variation with the passage of time.
(§1) First, Polysorbate 20 was dissolved in distilled water in a concentration of 0.5%, and the saccharides were dissolved in such concentrations as listed in Table 7. Next, 20 mg of the active component (KRN7000) was weighed and stirred in 100 ml of the solvents in a heated bath to 80° C. for 20 minutes in order to form a solution. After cooling with running water, the mixture was filtered through a 0.22 μm filter, and transparent colorless glass vials having a volume of 5 ml were charged with a 1 ml portion of each of a variety of solutions thus obtained and subjected to lyophilization. Lyophilization was carried out under the condition of preliminary freezing at −40° C. for 2 hours and drying at −20° C. for 24 hours, 10° C. for 12 hours, and finally at 25° C. for 5 hours to give the lyophilized product. The degree of vacuum was set at 0.1 Torr or less during drying step.
After the lyophilization step, the lyophilized composition was stored at 25° C. After storage for 1 month, the lyophilized composition was reconstituted in 1 ml of distilled water for injection, left standing for 30 minutes, and solubility was judged when the foams generated on reconstitution disappeared. The samples judged in solution were further stored, and judged again of their solubility after 4 months.
(§2) The solubility was judged by cleaning the outside of the vial and placing it beneath the white light source in a darkroom for observation with naked eye at the position of a luminous intensity of about 5,000 lux. When the sample was clear with no precipitates, it was judged that the active component was dissolved.

[2] = Additives for improving re-solubility during storage, sucrose as excipient; details: lyophilized, Polysorbate 20 0.5%, Sucrose 9.6%
Method: as §1, with “sucrose and a variety of additives” for “the saccharides were dissolved in”, “9.” for “7.”
After the lyophilization step, the lyophilized composition thus obtained was stored at 25° C. or 50° C. , or at both of these temperatures. After storage at 25° C. for 1 month or at 50° C. for 3 days, the lyophilized composition was reconstituted in 1 ml of distilled water for injection, left standing for 30 minutes, and solubility was judged when the foams generated on reconstitution disappeared. The samples judged in solution were further stored, and judged again of their solubility after storage at 25° C. for 4 months or at 50° C. for 2 weeks.
as §2

[3] = Cooling condition after dissolution with heating 1: turbidity (absorbance 660 nm, kaolin standard); details: Polysorbate 20 0.5%, histidine 0.75%, sucrose 5.6%; cooling 73° C. → 30° C., 23 minutes; reconstituted in 1 ml distilled water
Method: First, Polysorbate 20 was dissolved in distilled water in a concentration of 0.5%, histidine in a concentration of 0.75%, and sucrose in a concentration of 5.6%. Next, 800 mg of the active component (KRN7000) was weighed and stirred in 4 liters of the solvent under heating at 73° C. for 30 minutes in order to form a solution. After dissolution, the mixture was divided into about 500 ml portions, cooled with stirring from 73° C. to 30° C. (6 minutes), from 73° C. to 30° C. (23 minutes), and from 73° C. to 30° C. (120 minutes). […]
The turbidity of the solutions prepared respective cooling conditions before or after the filtration step, and the lyophilized composition thus obtained which were reconstituted after leaving standing at room temperature (25° C. ) for 3 hours from the lyophilization step, were measured. In this connection, the lyophilized composition was reconstituted in 1 ml of distilled water for injection, left standing for 30 minutes, and turbidity was measured when the foams generated on reconstitution disappeared.
The turbidity was measured by the following method: various dilutions including 50-fold dilution (kaolin 2 μg/ml, turbidity 2.00), 100-fold dilution (kaolin 1 μg/ml, turbidity 1.00), and 200-fold dilution (kaolin 0.5 μg/ml, turbidity 0.50) were prepared by diluting the turbidity standard (kaolin, 0.1 mg/ml) with distilled water. […]

CCCCCCCCCCCCCCCCCCCCCCCCCC(=O)N[C@@H](CO[C@H]1O[C@H](CO)[C@H](O)[C@H](O)[C@H]1O)[C@H](O)[C@H](O)CCCCCCCCCCCCCC [KRN7000, (2S,3S,4R)-1-(α-D-galactopyranosyloxy)-2-hexacosanoylamino-3,4-octadecanediol]
Re-solubility after storage (by naked eye) ([1]; Mannitol 10%, 1 month): − (dissolved)
Re-solubility after storage (by naked eye) ([1]; Mannitol 10%, 4 months): + (not dissolved (or deposited))
Re-solubility after storage (by naked eye) ([1]; Sucrose 9.6%, 1 month): − (dissolved)
Re-solubility after storage (by naked eye) ([1]; Sucrose 9.6%, 4 months): + (not dissolved (or deposited))
Re-solubility after storage (by naked eye) ([2]; Arginine, 0.1%, 50° C., 3 days): + (not dissolved (or deposited))
Re-solubility after storage (by naked eye) ([2]; Glycerol, 1%, 25° C., 1 month): + (not dissolved (or deposited))
Re-solubility after storage (by naked eye) ([2]; Glycine, 0.1%, 50° C., 3 days): + (not dissolved (or deposited))
Re-solubility after storage (by naked eye) ([2]; Glycine, 1%, 50° C., 3 days): + (not dissolved (or deposited))
Re-solubility after storage (by naked eye) ([2]; Histidine, 2%, 50° C., 2 weeks): − (dissolved)
Re-solubility after storage (by naked eye) ([2]; Histidine, 2%, 50° C., 3 days): − (dissolved)
Re-solubility after storage (by naked eye) ([2]; Pluronic F68, 0.1%, 25° C., 1 month): − (dissolved)
Re-solubility after storage (by naked eye) ([2]; Pluronic F68, 0.1%, 25° C., 4 month): + (not dissolved (or deposited))
Re-solubility after storage (by naked eye) ([2]; Pluronic F68, 1%, 25° C., 1 month): − (dissolved)
Re-solubility after storage (by naked eye) ([2]; Pluronic F68, 1%, 25° C., 4 month): + (not dissolved (or deposited))
Re-solubility after storage (by naked eye) ([2]; Propylene glycol, 1%, 25° C., 1 month): + (not dissolved (or deposited))
Re-solubility after storage (by naked eye) ([2]; Sodium deoxycholate, 0.1%, 25° C., 1 month): − (dissolved)
Re-solubility after storage (by naked eye) ([2]; Sodium deoxycholate, 0.1%, 25° C., 4 month): + (not dissolved (or deposited))
Re-solubility after storage (by naked eye) ([2]; Sodium deoxycholate, 1%, 25° C., 1 month): − (dissolved)
Re-solubility after storage (by naked eye) ([2]; Sodium deoxycholate, 1%, 25° C., 4 month): − (dissolved)
Re-solubility after storage (by naked eye) ([2]; Sodium deoxycholate, 1%, 50° C., 2 weeks): − (dissolved)
Re-solubility after storage (by naked eye) ([2]; Sodium deoxycholate, 1%, 50° C., 3 days): − (dissolved)
Re-solubility after storage (by naked eye) ([2]; no additive, 25° C., 1 month): − (dissolved)
Re-solubility after storage (by naked eye) ([2]; no additive, 25° C., 4 month): + (not dissolved (or deposited))
Re-solubility after storage (by naked eye) ([2]; no additive, 50° C., 3 days): + (not dissolved (or deposited))
Turbidity Lyophilized composition [3]: 0.36
